We go through one compound from ChEMBL document CHEMBL5506055, “Hit-to-Lead Optimization of the Natural Product Oridonin as Novel NLRP3 Inflammasome Inhibitors with Potent Anti-Inflammation Activity” (J Med Chem, 2024).

Structures are written as SMILES. The source made the active and inactive calls.

The target in series [1] is NACHT, LRR and PYD domains-containing protein 3 (Mus musculus) (UniProt Q8R4B8). The series can be described thus: Inhibition of NLRP3 inflammasome activation in LPS/ATP-induced C57BL/6 mouse BMDMs assessed as inhibition of ASC oligomerization by measuring reduction in cleaved caspase-1 secretion at 50 to 200 nM preincubated with LPS for 4 hrs followed by compound addition for 30 mins and further stimulated with ATP for 30 mins by Western blotting analysis. The format is cell-based. Conditions: BMDM, dose 50-200 nM, time 1.0 hrs. (In general: A western blot detects proteins with antibodies after separation by electrophoresis.)
NACHT, LRR and PYD domains-containing protein 3 (Mus musculus), sequence (Q8R4B8 whole entry, the tested form may be a part): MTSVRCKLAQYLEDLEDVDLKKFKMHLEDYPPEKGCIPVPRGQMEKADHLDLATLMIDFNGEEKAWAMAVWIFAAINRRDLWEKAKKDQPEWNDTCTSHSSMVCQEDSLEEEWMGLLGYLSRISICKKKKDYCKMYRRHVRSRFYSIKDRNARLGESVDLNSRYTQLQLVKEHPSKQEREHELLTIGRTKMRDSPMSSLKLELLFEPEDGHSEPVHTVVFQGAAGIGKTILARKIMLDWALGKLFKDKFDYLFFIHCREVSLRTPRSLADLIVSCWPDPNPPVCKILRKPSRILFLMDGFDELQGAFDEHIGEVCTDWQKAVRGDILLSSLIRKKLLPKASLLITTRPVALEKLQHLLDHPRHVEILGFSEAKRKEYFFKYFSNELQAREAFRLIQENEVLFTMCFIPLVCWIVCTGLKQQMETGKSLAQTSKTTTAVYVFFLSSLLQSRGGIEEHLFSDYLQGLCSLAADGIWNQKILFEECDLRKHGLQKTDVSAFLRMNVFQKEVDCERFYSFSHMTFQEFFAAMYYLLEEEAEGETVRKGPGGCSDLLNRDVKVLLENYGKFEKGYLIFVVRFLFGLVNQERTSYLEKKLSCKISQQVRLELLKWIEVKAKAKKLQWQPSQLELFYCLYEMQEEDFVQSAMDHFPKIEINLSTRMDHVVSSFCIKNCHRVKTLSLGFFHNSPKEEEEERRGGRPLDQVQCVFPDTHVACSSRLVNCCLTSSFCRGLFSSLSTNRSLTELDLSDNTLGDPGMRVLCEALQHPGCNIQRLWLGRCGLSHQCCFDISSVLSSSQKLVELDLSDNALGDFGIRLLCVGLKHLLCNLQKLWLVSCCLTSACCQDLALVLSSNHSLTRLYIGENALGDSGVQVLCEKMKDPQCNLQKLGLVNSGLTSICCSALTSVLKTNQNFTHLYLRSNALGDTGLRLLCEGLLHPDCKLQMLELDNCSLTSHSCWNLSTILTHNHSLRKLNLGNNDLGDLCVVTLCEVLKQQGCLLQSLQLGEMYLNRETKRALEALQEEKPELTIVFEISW

A short description of series [2]: AUC in ICR mouse at 10 mg/kg, po measured upto 24 hrs by LC-MS/MS method. Conditions: in vivo, po, 10 mg/kg, 24 h. Format: ADME, organism-based.
Series [3] addresses NLRP3-NEK7 (Mus musculus) (UniProt Q8R4B8+Q9ES74). The series can be described thus: Inhibition of NLRP3/NEK7 protein-protein interaction in LPS/ATP-induced C57BL/6 mouse BMDMs at 200 nM preincubated with LPS for 4 hrs followed by compound addition for 30 mins and further stimulated with ATP for 30 mins by Western blotting analysis. Format: cell-based. Conditions: BMDM, time 1.0 hrs.

The target in series [4] is NACHT, LRR and PYD domains-containing protein 3 (Mus musculus) (UniProt Q8R4B8). The series can be described thus: Inhibition of NLRP3 inflammasome activation in LPS/MSU-induced C57BL/6 mouse BMDMs at 200 nM preincubated with LPS for 4 hrs followed by compound addition for 30 mins and further stimulated with MSU for 6 hrs by ELISA. Conditions: BMDM, time 6.5 hrs. Format: cell-based. (In general: An ELISA detects its analyte on a solid surface through an enzyme-linked reagent.)

For series [5], the system named is Mus musculus. As to the kind of experiment: Antiinflammatory activity in C57BL/6 mouse model of arthritis assessed as reduction in MSU-induced NLRP3 expression in joints at 12.5 to 25 mg/kg, iv measured upto 24 hrs. The format is functional, organism-based. Conditions: dose 12.5-25 mg/kg.
A short description of series [6]: Half-life in ICR mouse at 1 mg/kg, iv measured upto 24 hrs by LC-MS/MS method. The format is ADME, organism-based. Conditions: in vivo.
Series [7] addresses NACHT, LRR and PYD domains-containing protein 3 (Mus musculus) (UniProt Q8R4B8). As to the kind of experiment: Inhibition of NLRP3 inflammasome activation in LPS-induced C57BL/6 mouse BMDMs assessed as reduction in NLRP3 mRNA level at 50 to 200 nM preincubated for 24 hrs followed by LPS addition for 4 hrs by qRT-PCR analysis. The format is cell-based. Conditions: BMDM, dose 50-200 nM, time 28.0 hrs.

Series [8] is described as follows: Hepatotoxicity in mouse assessed as change in AST/ALT ratio at 100 mg/kg, po or 12.5 to 25 mg/kg, iv. The format is toxicity, organism-based. Conditions: in vivo.
Series [9] concerns Mus musculus. As to the kind of experiment: Antiinflammatory activity in MSU-induced C57BL/6 mouse model of arthritis at 100 mg/kg, po measured upto 24 hrs. The format is functional, organism-based.
Series [10] addresses NACHT, LRR and PYD domains-containing protein 3 (Mus musculus) (UniProt Q8R4B8). The series can be described thus: Inhibition of NLRP3 inflammasome activation in LPS-induced C57BL/6 mouse BMDMs assessed as effect on phosphorylated p65 expression at 50 to 200 nM preincubated for 24 hrs followed by LPS addition for 4 hrs by Western blotting analysis. Conditions: BMDM, dose 50-200 nM, time 28.0 hrs. Format: cell-based.

For series [11] the target is unchanged. As to the kind of experiment: Inhibition of NLRP3 inflammasome activation in LPS-induced C57BL/6 mouse BMDMs assessed as reduction in pro-IL-1beta mRNA level at 50 to 200 nM preincubated for 24 hrs followed by LPS addition for 4 hrs by qRT-PCR analysis. Conditions: BMDM, dose 50-200 nM, time 28.0 hrs. Format: cell-based. Background: Quantitative PCR measures a nucleic acid by following its amplification.

Series [12] shares this target. As to the kind of experiment: Inhibition of NLRP3 inflammasome activation in LPS/ATP-induced C57BL/6 mouse BMDMs assessed as inhibition of ASC oligomerization by measuring reduction in IL-1beta secretion at 50 to 200 nM preincubated with LPS for 4 hrs followed by compound addition for 30 mins and further stimulated with ATP for 30 mins by Western blotting analysis. Conditions: BMDM, dose 50-200 nM, time 1.0 hrs. The format is cell-based.

A short description of series [13]: Cmax in ICR mouse at 10 mg/kg, po measured upto 24 hrs by LC-MS/MS method. The format is ADME, organism-based. Conditions: in vivo.
In a further series the test system is BMDM. As to the kind of experiment: Inhibition of mitochondrial ROS production in mouse BMDMs at 200 nM preincubated with LPS for 4 hrs followed by compound addition for 30 mins and further stimulated with ATP for 30 mins by confocal microscopic analysis. The format is functional, cell-based. Conditions: time 1.0 hrs.
In series [14] the test system is Mus musculus. The series can be described thus: Antiinflammatory activity in C57BL/6 mouse model of arthritis assessed as reduction in MSU-induced TNFalpha secretion at 12.5 to 25 mg/kg, iv measured upto 24 hrs. The format is functional, organism-based. Conditions: dose 12.5-25 mg/kg.
In series [15] the target is NACHT, LRR and PYD domains-containing protein 3 (Mus musculus) (UniProt Q8R4B8). The series can be described thus: Inhibition of NLRP3 inflammasome activation in LPS/ATP-induced C57BL/6 mouse BMDMs assessed as inhibition of ASC oligomerization by measuring reduction in pro-caspase-1 expression at 50 to 200 nM preincubated with LPS for 4 hrs followed by compound addition for 30 mins and further stimulated with ATP for 30 mins by Western blotting analysis. Conditions: BMDM, dose 50-200 nM, time 1.0 hrs. Format: cell-based.

Series [16] can be described thus: Clearance in ICR mouse at 1 mg/kg, iv measured upto 24 hrs by LC-MS/MS method. The format is ADME, organism-based. Conditions: in vivo.
Series [17] addresses T1, Interferon-inducible protein AIM2 (Mus musculus) (UniProt Q91VJ1).
T1 sequence (whole entry): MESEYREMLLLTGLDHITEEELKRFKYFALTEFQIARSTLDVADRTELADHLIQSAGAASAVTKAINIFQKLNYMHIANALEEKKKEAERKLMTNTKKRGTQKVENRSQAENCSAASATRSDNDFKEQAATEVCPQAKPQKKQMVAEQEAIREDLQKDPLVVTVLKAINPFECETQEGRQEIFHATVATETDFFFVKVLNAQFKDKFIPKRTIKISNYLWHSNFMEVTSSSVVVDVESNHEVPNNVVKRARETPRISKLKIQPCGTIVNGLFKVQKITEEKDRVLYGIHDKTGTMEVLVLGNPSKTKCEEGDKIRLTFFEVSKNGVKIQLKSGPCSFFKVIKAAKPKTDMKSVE
As to the kind of experiment: Inhibition of AIM2 inflammasome activation in LPS/flagellin-induced C57BL/6 mouse BMDMs at 200 nM […] for 4 hrs followed by compound addition for 30 mins and further stimulated with flagellin for 4 hrs. Format: cell-based. Conditions: BMDM, time 4.5 hrs.

Series [18] concerns the target NLR family CARD domain-containing protein 4 (Mus musculus) (UniProt Q3UP24). The series can be described thus: Inhibition of NLRC4 inflammasome activation in LPS/Poly(dA:dT)-induced C57BL/6 mouse BMDMs at 200 nM […] for 4 hrs followed by compound addition for 30 mins and further Poly(dA:dT) transfected with Lipo-3000 for 4 hrs. Conditions: BMDM, time 4.5 hrs. Format: cell-based.

For series [19], the target named is Voltage-gated inwardly rectifying potassium channel KCNH2 (Homo sapiens, UniProt Q12809). The series can be described thus: Inhibition of human ERG expressed in CHO cells. The format is toxicity, cell-based.
Voltage-gated inwardly rectifying potassium channel KCNH2, sequence (Q12809 whole entry, the tested form may be a part): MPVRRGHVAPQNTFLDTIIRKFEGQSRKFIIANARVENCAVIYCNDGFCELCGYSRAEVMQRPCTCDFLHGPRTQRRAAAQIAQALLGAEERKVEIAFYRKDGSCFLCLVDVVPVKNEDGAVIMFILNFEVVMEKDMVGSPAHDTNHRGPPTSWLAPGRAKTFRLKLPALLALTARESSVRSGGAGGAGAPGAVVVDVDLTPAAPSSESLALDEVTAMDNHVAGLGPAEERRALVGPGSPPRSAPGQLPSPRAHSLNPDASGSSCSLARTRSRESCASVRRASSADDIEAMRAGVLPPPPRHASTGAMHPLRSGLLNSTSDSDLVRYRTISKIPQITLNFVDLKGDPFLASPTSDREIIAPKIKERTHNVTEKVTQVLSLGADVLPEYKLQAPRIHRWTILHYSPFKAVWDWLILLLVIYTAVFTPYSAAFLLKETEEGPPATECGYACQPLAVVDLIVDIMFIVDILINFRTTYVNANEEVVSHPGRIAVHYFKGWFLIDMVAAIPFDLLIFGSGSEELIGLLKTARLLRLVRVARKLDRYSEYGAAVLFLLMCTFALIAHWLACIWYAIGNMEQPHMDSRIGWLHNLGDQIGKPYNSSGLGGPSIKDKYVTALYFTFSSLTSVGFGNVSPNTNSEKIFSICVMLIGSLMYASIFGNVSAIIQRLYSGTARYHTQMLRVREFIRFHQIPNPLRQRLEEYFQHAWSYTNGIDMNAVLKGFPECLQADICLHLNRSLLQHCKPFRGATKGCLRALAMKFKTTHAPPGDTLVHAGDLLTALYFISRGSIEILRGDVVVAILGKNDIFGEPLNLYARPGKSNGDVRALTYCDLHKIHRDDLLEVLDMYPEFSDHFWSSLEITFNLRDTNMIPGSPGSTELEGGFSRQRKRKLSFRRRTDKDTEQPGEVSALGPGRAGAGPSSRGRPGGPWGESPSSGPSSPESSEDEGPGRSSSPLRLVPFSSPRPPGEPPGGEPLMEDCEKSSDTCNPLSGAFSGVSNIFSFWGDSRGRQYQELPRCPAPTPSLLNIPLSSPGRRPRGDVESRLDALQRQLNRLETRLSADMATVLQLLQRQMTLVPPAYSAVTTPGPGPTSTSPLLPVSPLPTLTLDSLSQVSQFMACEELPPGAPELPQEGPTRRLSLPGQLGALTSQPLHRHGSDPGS
In series [20] the target is NACHT, LRR and PYD domains-containing protein 3 (Mus musculus) (UniProt Q8R4B8). As to the kind of experiment: Inhibition of NLRP3 inflammasome activation in LPS/ATP-induced C57BL/6 mouse BMDMs assessed as inhibition of ASC oligomerization by measuring reduction in ASC expression at 50 to 200 nM preincubated with LPS for 4 hrs followed by compound addition for 30 mins and further stimulated with ATP for 30 mins by Western blotting analysis. Conditions: BMDM, dose 50-200 nM, time 1.0 hrs. Format: cell-based.

For series [21] the target is unchanged. The series can be described thus: Inhibition of NLRP3 inflammasome activation in LPS-induced C57BL/6 mouse BMDMs assessed as reduction in IL-1beta level preincubated with Pam3CSK4 for 3 hrs followed by compound addition for 30 mins and further LPS transfected with Lipo-3000 for 16 hrs by ELISA. The format is cell-based. Conditions: BMDM, dose 50-200 nM, time 16.5 hrs.

NLRP3-NEK7 (Mus musculus), sequence (Q8R4B8 whole entry, looked up): as the sequence (Q8R4B8 whole entry, the tested form may be a part) above
NLRP3-NEK7 (Mus musculus), sequence (Q9ES74 whole entry, looked up): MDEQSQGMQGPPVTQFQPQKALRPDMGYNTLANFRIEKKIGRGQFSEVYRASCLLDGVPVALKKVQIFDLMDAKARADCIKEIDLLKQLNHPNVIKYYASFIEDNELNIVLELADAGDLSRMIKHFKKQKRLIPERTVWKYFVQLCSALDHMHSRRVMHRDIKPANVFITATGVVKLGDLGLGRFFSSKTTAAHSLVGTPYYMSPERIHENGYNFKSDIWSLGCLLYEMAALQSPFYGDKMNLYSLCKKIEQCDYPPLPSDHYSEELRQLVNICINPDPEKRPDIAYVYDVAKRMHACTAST
NLR family CARD domain-containing protein 4 (Mus musculus), sequence (Q3UP24 whole entry, the tested form may be a part): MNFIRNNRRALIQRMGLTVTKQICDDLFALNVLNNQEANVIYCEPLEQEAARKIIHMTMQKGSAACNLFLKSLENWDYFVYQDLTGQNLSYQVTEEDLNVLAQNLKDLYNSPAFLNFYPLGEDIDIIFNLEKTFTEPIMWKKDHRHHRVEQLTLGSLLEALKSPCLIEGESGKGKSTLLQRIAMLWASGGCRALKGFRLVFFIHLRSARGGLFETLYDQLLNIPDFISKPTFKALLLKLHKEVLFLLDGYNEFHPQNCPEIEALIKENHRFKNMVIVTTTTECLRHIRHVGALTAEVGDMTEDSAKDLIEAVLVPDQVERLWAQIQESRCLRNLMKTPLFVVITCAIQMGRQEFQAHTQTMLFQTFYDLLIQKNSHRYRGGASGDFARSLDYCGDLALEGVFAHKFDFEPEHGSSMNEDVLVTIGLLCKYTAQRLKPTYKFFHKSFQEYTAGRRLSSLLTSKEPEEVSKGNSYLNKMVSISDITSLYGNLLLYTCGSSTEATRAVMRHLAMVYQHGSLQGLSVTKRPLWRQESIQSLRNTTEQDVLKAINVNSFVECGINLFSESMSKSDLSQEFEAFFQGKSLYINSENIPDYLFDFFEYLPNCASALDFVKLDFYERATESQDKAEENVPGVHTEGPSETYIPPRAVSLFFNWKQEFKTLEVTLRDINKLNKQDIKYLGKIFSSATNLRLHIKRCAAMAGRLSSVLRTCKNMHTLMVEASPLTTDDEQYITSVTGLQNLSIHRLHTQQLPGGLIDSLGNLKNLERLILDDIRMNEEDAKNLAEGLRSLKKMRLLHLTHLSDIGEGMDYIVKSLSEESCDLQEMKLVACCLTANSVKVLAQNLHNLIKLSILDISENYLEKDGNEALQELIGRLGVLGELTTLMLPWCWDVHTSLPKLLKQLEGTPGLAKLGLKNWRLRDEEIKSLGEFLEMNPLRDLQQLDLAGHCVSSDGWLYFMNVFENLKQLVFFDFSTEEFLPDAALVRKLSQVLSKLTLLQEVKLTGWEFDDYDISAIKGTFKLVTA

Regarding `C=C1C(=O)[C@]23[C@H](O)[C@H]1CC[C@H]2[C@]12C=CCC(C)(C)[C@H]1[C@H](O)[C@@]3(OCCC(=O)O)OC2`, the inhibition entry in [1], in series [3], in series [4], in [12], in [17] and in [18] was “Active” each time. Also, the AUC – broadly, the area under the concentration-time curve, a measure of exposure – in [2] was 525.5 ng·h/mL. In the series with Mus musculus [5], the outcome was inactive. In [6], the half-life (as a rule, the time needed for the level to fall by half in the phase considered) is 1.98 h. Besides, the inhibition entry (in series [7]; in [10]; in series [11]; in the series with BMDM; in series [15]; in series [20]) was “inactive” in each case. In series [8], the Activity result is “Non-Toxic”. For the same compound, the outcome with Mus musculus [9] and with Mus musculus [14] was Active. Moreover, in series [13], the Cmax (usually the peak of the concentration-time curve) was 279 ng/mL. Further, the clearance (in general, a measure of how efficiently the substance is removed, as volume per time) in [16] is 69.1 mL/min/kg. Moreover, the IC50 (usually the midpoint of a concentration-inhibition curve) in [19] is above 40 µM. Further, the inhibition result in series [21] is “Dose-Dependent Effect”.
